Data: patent publication US12098145B2 (Libra Therapeutics, Inc., priority 2022, dated 2024)
Structures can show the parent of a compound that is named as a salt. Where two headings read alike, the source gives them in different places.

Legend:
TRPML1 = target: T1, TRPML1 (Homo sapiens, UniProt Q9GZU1); assay: Cellular TRPML1 assay (FLIPR, GCaMP6f calcium read-out); format: cell-based; details: HEKT-REx/GCaMP6f/TRPML1 cells, FLIPR TETRA, kinetic response over 300 seconds; read-out: TRPML1 FLIPR pEC50 (converted)
T1 construct: expressed in transfected cells; host or cells: HEK T-REx cells stably expressing GCaMP6f and TRPML1
Procedure, shortened: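 HEK T-REx cells stably expressing TRPML1 and GCaMP6f, seeded 24 h before in Optimem + 0.5% FBS. After ~10 min pre-incubation at room temperature, compounds in Ca2+-free Tyrode's buffer were injected on FLIPR Tetra (final DMSO 0.5%). Calcium fluorescence kinetics followed for 300 s.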

TFEB = TFEB translocation assay (TFEB reporter in U2OS cells, imaging); format: cell-based; details: Homo sapiens, read-out: TFEB Translocation pEC50 (converted)
Procedure, shortened: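 U2OS cells stably expressing mRFP-fused TFEB reporter, switched to Opti-MEM then treated 2 h at 37 °C with compounds (0.5% DMSO, 0.015% Tween 80). Hoechst-stained, PFA-fixed cells imaged at 20×; nucleus/cytoplasm intensity ratio per well normalized to Torin-1 (100%) and DMSO (0%).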

[1] = U2OS cell line with TFEB reporter, 2 hours incubation, nucleus to cytoplasm ratio, normalized to Torin-1

T1 sequence (Q9GZU1 whole entry): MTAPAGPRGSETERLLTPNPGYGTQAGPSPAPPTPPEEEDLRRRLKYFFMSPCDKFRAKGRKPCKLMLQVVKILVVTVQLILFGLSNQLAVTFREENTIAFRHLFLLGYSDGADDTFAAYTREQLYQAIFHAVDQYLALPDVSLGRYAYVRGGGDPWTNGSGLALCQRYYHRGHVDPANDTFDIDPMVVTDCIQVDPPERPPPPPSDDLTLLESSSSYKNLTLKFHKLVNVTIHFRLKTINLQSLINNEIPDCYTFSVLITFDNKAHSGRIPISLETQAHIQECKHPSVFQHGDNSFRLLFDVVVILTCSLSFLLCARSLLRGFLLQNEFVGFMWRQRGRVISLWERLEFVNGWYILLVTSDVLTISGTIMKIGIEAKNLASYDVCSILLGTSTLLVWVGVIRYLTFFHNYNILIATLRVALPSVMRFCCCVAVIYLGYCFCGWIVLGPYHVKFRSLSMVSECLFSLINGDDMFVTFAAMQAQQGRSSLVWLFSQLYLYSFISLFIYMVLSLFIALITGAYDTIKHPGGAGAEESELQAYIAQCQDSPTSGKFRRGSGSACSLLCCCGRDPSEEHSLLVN

| SMILES | EC50 (TRPML1) [nM] | EC50 (TFEB; [1]) [nM] | EC50 (TFEB; U2OS, 2 h) [nM] |
| --- | --- | --- | --- |
| CCN(C)Cc1oc(N2CC(C)(OC)C2)nc1C(=O)Nc1cc(F)c(OC2CC3CC(C3)C2)c(F)c1 (stereo not shown) [Example 307, N-(4-(bicyclo[3.1.1]heptan-3-yloxy)-3,5-difluorophenyl)-5-((ethyl(methyl)amino)methyl)-2-(3-methoxy-3-methylazetidin-1-yl)oxazole-4-carboxamide hydrochloride] | 10 to 1000 | 10 to 1000 | – |
| O=C(Nc1cc(F)c(O[C@@H]2C[C@@H]3C[C@@H]3C2)c(F)c1)c1nc(N2CCCC2)oc1CN1CCCC1 [Example 308, N-(4-(cis-bicyclo[3.1.0]hexan-3-yloxy)-3,5-difluorophenyl)-2-(pyrrolidin-1-yl)-5-(pyrrolidin-1-ylmethyl)oxazole-4-carboxamide hydrochloride] | 10 to 1000 | 10 to 1000 | – |
| CCN(C)Cc1oc(N2CC(CC)(OC)C2)nc1C(=O)Nc1cc(O)c(OC2CC3CC(C3)C2)c(F)c1 (stereo not shown) [Example 309, N-(4-(bicyclo[3.1.1]heptan-3-yloxy)-3-fluoro-5-hydroxyphenyl)-5-((ethyl(methyl)amino)methyl)-2-(3-ethyl-3-methoxyazetidin-1-yl)oxazole-4-carboxamide] | 1000 to 10000 | – | 1000 to 10000 |

Now from value to molecule, other results behind:

| EC50 (TRPML1) [nM] | SMILES | EC50 (TFEB; [1]) [nM] | EC50 (TFEB; U2OS, 2 h) [nM] |
| --- | --- | --- | --- |
| 1000 to 10000 | O=C(Nc1cc(F)c2c(c1)CCN2C1CC2CC2C1)c1nc(N2CCCC2)oc1CC(F)(F)F (stereo not shown) [Example 315, N-(1-(bicyclo[3.1.0]hexan-3-yl)-7-fluoroindolin-5-yl)-2-(pyrrolidin-1-yl)-5-(2,2,2-trifluoroethyl)oxazole-4-carboxamide] | 10 to 1000 | – |
| 10 to 1000 | CCc1oc(N2CC(CC)(CC)C2)nc1C(=O)Nc1cc(F)c2c(c1)CCN2C1CC2CC2C1 (stereo not shown) [Example 316, N-(1-(bicyclo[3.1.0]hexan-3-yl)-7-fluoroindolin-5-yl)-2-(3,3-diethylazetidin-1-yl)-5-ethyloxazole-4-carboxamide] | 10 to 1000 | – |
